Test results taken from PubChem BioAssay AID463094 (The Scripps Research Institute Molecular Screening Center, 2010).
Activity calls are given as the source filed them.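 The calls were made as follows: active = inhibition at or above 90%; inactive = inhibition below 90%.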

The molecules below were run against Glutathione S-transferase omega-1 (Homo sapiens) (UniProt P78417) (assay: in situ GSTO1 inhibitors in cancer cells, late-stage follow-up, cell-based, MDA-MB-435, in-gel fluorescence (AID 463094)). Conditions: MDA-MB-435 in situ, competitive ABPP gel fluorescence, 1 h; at 1 µM; hits give high values.
Chain of Glutathione S-transferase omega-1 (Homo sapiens) (P78417 whole entry, looked up): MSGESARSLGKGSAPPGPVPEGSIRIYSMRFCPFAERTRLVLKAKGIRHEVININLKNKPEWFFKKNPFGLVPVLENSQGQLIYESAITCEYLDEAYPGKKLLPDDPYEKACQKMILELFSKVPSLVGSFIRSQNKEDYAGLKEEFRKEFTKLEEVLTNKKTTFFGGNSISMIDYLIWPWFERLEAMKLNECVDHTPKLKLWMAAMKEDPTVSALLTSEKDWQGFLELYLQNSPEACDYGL

**Q.** For `C#CCCCCNC(=O)C(c1ccc(OC)cc1)N(C(=O)CCl)c1cccc(Cl)c1` (stereo not given), which inhibition is on record?
**A.** Its inhibition is 90%.

**Q.** `C#CCNC(=O)C(c1ccc(OC)cc1)N(C(=O)CCl)c1cccc(Cl)c1` (stereo not given) was tested. Which inhibition did it give?
**A.** The inhibition was 77% (inactive).

**Q.** For `Cc1cccc(CN2CCN(C(=O)CCl)CC2)c1`, which inhibition is on record?
**A.** Its inhibition is 53% (inactive).

**Q.** How did the inhibition turn out when `COc1ccc(C(C(=O)NC2CCCCC2)N(C(=O)CCl)c2ccc(Cl)cc2)cc1` (stereo not given) was run?
**A.** The inhibition was 60% (inactive).

**Q.** With `COc1ccc(C(C(=O)NC2CCCCC2)N(C(=O)CCl)c2cccc(Cl)c2)cc1` (stereo not given) as the molecule, how does the inhibition read?
**A.** Its inhibition is 100%.

**Q.** `C#CCN(CCCN(C(=O)CCl)c1ccc([N+](=O)[O-])cc1)C(=O)C(F)(F)F` was tested. Which inhibition did it give?
**A.** The inhibition was 100%.

**Q.** How did the inhibition turn out when `COc1ccc(N(C(=O)CCl)C(C(=O)NC2CCCCC2)c2cccnc2)cc1` (stereo not given) was run?
**A.** The inhibition was 95%.

**Q.** With `C#CCNC(=O)C(c1ccc(OC)cc1)N(C(=O)CCl)c1ccc(Cl)cc1` (stereo not given) as the molecule, how does the inhibition read?
**A.** The inhibition was 30% (inactive).

**Q.** How did the inhibition turn out when `C#CCCC(=O)NCCCN(C(=O)CCl)c1ccc([N+](=O)[O-])cc1` was run?
**A.** Its inhibition is 97%.

**Q.** For `COc1ccc(N(C(=O)CCl)C(C(=O)NCCc2ccccc2)c2cccs2)cc1Cl` (stereo not given), which inhibition is on record?
**A.** The inhibition was 95%.

**Q.** Which inhibition does the source give for `O=S(=O)(c1ccc(Cl)cc1)N1CCC2(CC1)CO2` here?
**A.** Its inhibition is 17% (inactive).

**Q.** With `CCOC(=O)c1sc(N(Cc2ccccc2)C(=O)CCl)nc1C` as the molecule, how does the inhibition read?
**A.** The inhibition was 65% (inactive).

**Q.** `O=C(NC1CCCCC1)C(c1cccnc1)N(C(=O)CCl)c1ccc(F)cc1` (stereo not given) was tested. Which inhibition did it give?
**A.** Its inhibition is 100%.

**Q.** For `C#CCCCCNC(=O)C(c1cccnc1)N(C(=O)CCl)c1ccc(F)cc1` (stereo not given), which inhibition is on record?
**A.** The inhibition was 95%.

**Q.** How did the inhibition turn out when `O=C(NC1CCCCC1)C(c1cccnc1)N(C(=O)CCl)c1cccc(Cl)c1` (stereo not given) was run?
**A.** The inhibition was 100%.
